# Data: patent US20110177950A1, “Imidazole and Triazole Compounds, Their Use and Agents Containing the Same” (priority 2008, published 2011)
# Assays:
# Botrytis cinerea = assay: Comparison with the prior art: C1 activity against gray mold pathogen in the microtiter test; format: cell-based; conditions: day 7 after inoculation, 405 nm
# Phakopsora pachyrhizi = assay: Curative activity against soybean rust (greenhouse, Example G1); format: in vivo; conditions: soybean seedlings, curative spray 300 ppm two days after inoculation, assessed after further 10 days; untreated 90% infected
# Procedure: The active compounds were prepared separately as a stock solution comprising 25 mg of active compound which was made up to 10 ml using a mixture of acetone and/or DMSO and the emulsifier Uniperol® EL (wetting agent having emulsifying and dispersing action based on ethoxylated alkylphenols) in a volume ratio of solvent/emulsifier of 99/1. The mixture was then made up to 100 ml with water. This stock solution was diluted with the solvent/emulsifier/water mixture described to the active compound concentration stated below. Alternatively, the active compounds were used as commercially finished formulation and diluted with water to the stated active compound concentration.
# Curative activity against soybean rust caused by Phakopsora pachyrhizi Leaves of potted soybean seedlings were inoculated with a spore suspension of soybean rust (Phakopsora pachyrhizi). The pots were then placed in a chamber with high atmospheric humidity (90 to 95%) and at 23 to 27° C. for 24 hours. During this time, the spores germinated and the germ tubes penetrated into the leaf tissue. The infected plants were then cultivated further in a greenhouse at temperatures between 23 and 27° C. and 60 to 80% relative atmospheric humidity. […] The extent of the rust fungus development on the leaves was then determined visually in % infection.
SMILES,Growth (%) at 8 ppm C1 (Botrytis cinerea) [%],rust fungus development on the leaves in % infection (Phakopsora pachyrhizi) [%]
CC(C)(C)C(O)C(C/C=C/c1ccccc1F)n1cncn1 (stereo not drawn),16,–
CC(=CCC(C(O)C(C)(C)C)n1cncn1)c1ccc(F)cc1F (mixture of isomers) [I.A9],–,0
CC(C)(C)C(O)C(C/C=C/c1ccccc1)n1cncn1 (stereo not drawn) [reference compound],84,–
